# Measured values from patent US20220280581A1, “BENEFICIAL BACTERIA AND SECRETORY IMMUNOGLOBULIN A” (priority 2019, published 2022).
# Legend:
# [1] = tested on: pooled human milk SIgA; assay: Binding of SIgA to bacteria by flow cytometry
# Description: Binding of sIgA to bacteria. Bacteria from Table 1 were resuspended in 0.8% saline at a concentration of 1×10^7 CFU/mL. SIgA was then added at 0, 10, 100, 500 and 1000 μg per 1×10^7 colony forming units (CFU) of bacteria and incubated at 24° C. for 30 min. Following incubation, bacteria were pelleted at 14000×g for 4 min and washed with saline twice to remove non-adherent SIgA.
# (§1) Flow cytometry and immunofluorescence: To measure binding cells were fixed using 4% w/v paraformaldehyde for 30 min, washed with PBS, then incubated with 1% bovine serum albumin (BSA) blocking buffer for 1 h. Cells were stained with 1/100 dilution SYTOT™ 9 (S34854, ThermoFisher) for live cells and goat anti-human IgA conjugated to Alexa 647 fluorophore using 1/50 dilution in 1% BSA (ab96998, Abcam). For flow cytometry, all samples were acquired and analyzed on a FACScan flow cytometer (BD Biosciences, Mountain View, Calif.) using the CellQuest software program. For live/dead analyses following in vitro digestion, cells were stained with SYTOT™ 9 (1/100 dilution) for live cells and propidium iodine (1/1000 dilution) for dead cells or cells with compromised membranes.
# [2] = Protection from simulated gastric digestion in vitro (pepsin, pancreatin): viability by CFU plating and live/dead flow cytometry; details: for slope of regression plot of viability with SIgA association: post-digestion; for Slope (CFU/% SIgA): regression of viable CFU post-digestion on SIgA association
# Description: as §1
# Protection from digestion using an in vitro model. To determine the extent to which the SIgA-glycan-mediated-bacterial complexes that included the Ig-bound secretory component (SC) where able to protect bacteria and SIgA from proteolytic degradation, an in vitro model was used. Simulated gastric digestion was performed by resuspending bacteria in 200 ul of 0.1% porcine pepsin (Sigma—Aldrich, St. Louis, Mo.) in PBS at pH 4. Samples were placed in an incubating shaker (New Brunswick Scientific, Edison, N.J.) at 140 rpm at 37° C. for 15 min. Cells were then pelleted and resuspended in 200 ul of 0.04% pancreatin (Sigma— Aldrich) in PBS pH 7, and the samples placed in the incubator shaker at 140 rpm at 37° C. for 5 min. Bacteria were pelleted and washed twice with PBS to remove residual enzymes, then evaluated for viability through CFU serial dilution and spot plating, and with live/dead flow cytometry analysis.
# [3] = tested on: Caco-2 colonic cells co-cultured with HT29-MTX E12 cells; assay: Bacterial adherence to colonocyte co-cultures; type: cell-based, human
# Description: (§2) Mammalian cell culture binding assays: Caco-2 colonic cells were co-cultured with HT29-MTX E12 cells at a ratio of 3:1 and seeded at a density of 5×10^4 cells/well in 24-well plates, maintained as described above. On day 1 post-confluence, medium was removed, the cells washed once with PBS, and DMEM without FBS or antibiotics was added prior to binding assay. Bacteria were prepared as described above, with or without SIgA and resuspended in PBS at 1×10^7 CFU/mL. 4×10^5 CFU were added to the colonocytes and the plate was centrifuged at 600×g for 5 min to ensure bacteria association with the cells. After 2 h of incubation at 37° C. in 5% CO2, medium was removed and saved for cytokine analysis. Cells were washed once with PBS, and to one set of replicates, cells were lysed with 0.5% Triton X-100 and serial dilutions of the cell suspensions were plated on MRS and incubated anaerobically at 37° C. overnight to test viability. To a second set of replicates, TRIzol (15596018; Life Technologies) was added directly to washed cells for RNA extraction.
# [4] = tested on: colonocytes (Caco-2 / HT29-MTX E12 co-culture); assay: Colonocyte barrier function and immune gene expression (RT-qPCR); type: cell-based, human; details: for change of IL-8 expression when SIgA is first complexed to the bacteria / change of JAM expression when SIgA is first complexed: SIgA-complexed vs bacteria alone
# Description: as §2
# Mammalian cell culture RT-qPCR for gene expression: Total RNA from mammalian co-culture samples were extracted via the TRIzol method. Total RNA (1 μg) was treated with Turbo DNAse (EN0521; Thermo Fisher) to remove genomic DNA, then used for reverse transcription producing cDNA, performed according to manufacturer protocol (High Capacity Complementary DNA Reverse Transcription Kit; Applied Biosystems). Gene list and primer sequences can be found in Table 2. Real-time PCR was performed with the Quantistudio 3 qPCR thermocycler (Applied Biosystems) using SyberGreen master mix (Life Technologies). Actin and GADPH were used as house-keeping genes. Analysis was performed using Quantistudio Design and Analysis Software v.1.4.3.
# [5] = tested on: Sal4; assay: BLI-Sal4 association: concentration dependence and stability; type: binding; details: FIG. 6, BLI-Sal4
# [6] = tested on: pooled human milk SIgA; assay: Binding of SIgA to bacteria by flow cytometry; details: 100 μg SIgA to 1e6 cfu bacteria
# [7] = colonocytes, listed as B. infantis
substance,measurement,setting,value
Bifidobacterium longum ssp. infantis ATCC 15697,binding of a heterogeneous pool of SIgA,[1]; 0-1000 μg SIgA per 1e7 CFU,concentration dependent
same,association to SIgA when first grown on 2′FL,[1]; 1% 2′FL in the final media,increased association to SIgA
same,viable bacteria post-digestion,"[2]; grown on LNnT, 1000 μg SIgA/1e7 CFU",1.3e5 CFU
same,viable bacteria post-digestion,"[2]; grown on LNnT, no SIgA",1.2e4 CFU
same,viable bacteria post-digestion,"[2]; grown on glucose, 1000 μg SIgA/1e7 CFU",8.9e5 CFU
same,viable bacteria post-digestion,"[2]; grown on glucose, no SIgA",1e5 CFU
same,slope of regression plot of viability with SIgA association,[2]; grown on LNnT,1.2e3 CFU per % population SIgA association
same,slope of regression plot of viability with SIgA association,[2]; grown on glucose,8.2e4 CFU per % population SIgA association
same,Slope (CFU/% SIgA),[2]; substrate 2′FL,410.1 CFU/% SIgA
same,Slope (CFU/% SIgA),[2]; substrate LNnT,1214 CFU/% SIgA
same,Slope (CFU/% SIgA),[2]; substrate glucose,8970 CFU/% SIgA
same,Slope (CFU/% SIgA),[2]; substrate lactose,76377 CFU/% SIgA
same,increased adherence to the co-culture with the addition of SIgA,[3]; first grown on LNnT,7.5e5 CFU
same,increased adherence to the co-culture with the addition of SIgA,[3]; first grown on glucose,3.5e6 CFU
same,slope of regression plot of adherent bacteria with SIgA association,[3]; lactose-grown,4.6e3 adherent CFU per % population associated with SIgA
same,Slope (adherent CFU/% SIgA association),[3]; substrate 2'FL,1552.0 adherent CFU/% SIgA associatio
same,Slope (adherent CFU/% SIgA association),[3]; substrate LNnT,3606.0 adherent CFU/% SIgA associatio
same,Slope (adherent CFU/% SIgA association),[3]; substrate all (no lac),4887.0 adherent CFU/% SIgA associatio
same,Slope (adherent CFU/% SIgA association),[3]; substrate glucose,6882.0 adherent CFU/% SIgA associatio
same,Slope (adherent CFU/% SIgA association),[3]; substrate lactose,−2230.0 adherent CFU/% SIgA associatio
same,change of barrier gene MUCSAC expression when SIgA is first complexed,"[4]; colonocytes, 1000 μg SIgA per 1e7 CFU",decreased
same,change of IL-8 expression when SIgA is first complexed to the bacteria,[4]; [7],reduces the expression
same,change of JAM expression when SIgA is first complexed,[4]; [7],increasing the expression
same,change of IL-8 expression when SIgA is first complexed to the bacteria,"[4]; colonocytes, listed as BLI",increased
same,change of JAM expression when SIgA is first complexed,"[4]; colonocytes, listed as BLI",decreased
same,change of Claudin 1 expression with SIgA association,[4]; mammalian colonocytes,increasing the expression
same,change of Occludin expression with SIgA association,[4]; mammalian colonocytes,increasing the expression
same,SIgA association with BLI: concentration dependence,[5],concentration dependent
same,SIgA association with BLI: stability over time,[5]; 6 hour,stable over a 6 hour time interval
same,ability to bind to pooled human milk SIgA,[6],92.4%
same,increase in SIgA binding when first grown on an HMO substrate,[6]; HMO-grown,4.8%
